Source: patent US12016939B2, “Skin treatment methods and compositions for transdermal delivery of active agents” (Topix Pharmaceuticals, Inc., priority 2020, dated 2024)

Tests used:
photoaged females [1] = experiment: Subject efficacy: self-assessed photodamage parameters, 5-point ordinal scale; format: in vivo, human
Description: (§1) The dermatologist-investigator and subjects assessed the following facial efficacy parameters: overall severity of photodamage, dryness, lack of tactile smoothness, lack of visual smoothness, lack of softness, lack of luminosity, lack of radiance, lack of firmness, poor skin texture, fine facial wrinkles, crow's feet, dyschromia, and crepey cheek skin texture. All assessments were graded on a 5-point ordinal scale (0=none, 1=minimal, 2=mild, 3=moderate, 4=severe). […] The investigator and subjects referred to baseline images (front, right and left side images) of the subjects in completing this evaluation.
(§2) Along with descriptive statistics (means, standard deviations, and percentages), investigator ordinal nonparametric data was analyzed using the Wilcoxon signed rank test and sign test for paired comparison at different time points within and between groups. Change was considered significant at a p-value of less than or equal to 0.05.
Subjects assessed their skin appearance across various photodamage parameters using a 5-pointordinal scale (0=none, 1=minimal, 2=mild, 3=moderate, 4=severe) at baseline, week 4, week 8, and week 12.

photoaged females [2] = test system: photoaged females; design: species or system human; conditions: in vivo
Description: Clinical photography was captured at each office visit using visible light of the central, right, and left face with a VISIA CR43 camera system (Canfield Scientific, NJ). Noninvasive assessments for barrier function in the form of transepidermal water loss (TEWL) measurements were taken from the left face using Evaporimeter, Cyberderm, Broomall, PA
TEWL (Evaporimeter, Cyberderm, Broomall, PA) measurements were taken at baseline, week 8, and week 12. […] TEWL increase was 16% lower in the retinol group as compared to the tretinoin group.

photoaged females [3] = experiment: Subject overall clinical improvement from baseline, 5-point scale; format: in vivo, human; conditions: after 12 weeks; scale 1=much improved to 5=worse
Description: as §1

photoaged females [4] = experiment: Investigator efficacy: facial skin appearance parameters graded on 5-point ordinal scale; format: in vivo, human; conditions: longitudinal intragroup
Description: as §1, §2
The investigator graded facial skin appearance parameters using a 5-point ordinal scale (0=none, 1=minimal, 2=mild, 3=moderate, 4=severe) at baseline (visit 1), week 4 (visit 2), and week 8 (visit 3), and week 12 (visit 4).

photoaged females [5] = experiment: Adverse experiences and discontinuations in the clinical study
Description: A single-site, double-blind controlled comparative study enrolled 45 photoaged females ages 35-65, Fitzpatrick skin types I-IV, with moderate wrinkling. Subjects who used facial retinoids within 3 months of screening, and/or facial alpha-hydroxy acids within 1 month were excluded. Subjects were randomized 2:1 into the following groups:
The 0.25% retinal serum was used twice weekly for week 1, then every other night for week 2, then every night for weeks 3 and 4. The Test Moisturizer (Lipid Replenishing Cream, TOPIX Pharmaceuticals, Inc, Amityville, NY) was placed on top of the retinal serum at each nightly application and every morning.
Cell 2: 15 subjects applied 0.025% tretinoin cream for 4 weeks. The 0.025% tretinoin cream was used twice weekly for the week 1, then every other night for week 2, then every night for weeks 3 and 4. Test Moisturizing cream (CeraVe Moisturizing Cream, L'Oreal, NY) was placed on top of the tretinoin cream (Ortho Dermatologies, NJ) at each application and every morning.

- increase in TEWL (photoaged females [2]; female, human, 12 weeks): 104%
SMILES: CC1=C(/C=C/C(C)=C/C=C/C(C)=C/C(=O)O)C(C)(C)CCC1 [tretinoin]
- subject assessed improvement, intragroup longitudinal (photoaged females [1]; all time points): experienced improvement
- softness, subject (photoaged females [1]; week 8, intragroup, retinol serum P<0.001): not seen until week 8
- most parameters, subject (photoaged females [1]; week 12, intragroup): statistical significance
- barrier damage (TEWL), intragroup (photoaged females [2]): induced barrier damage
- subject overall clinical improvement from baseline, on average reported (photoaged females [3]): much-improved
- luminosity, investigator (photoaged females [4]; week 4): statistically significant improvement
- radiance, investigator (photoaged females [4]; week 4): statistically significant improvement
- softness, investigator (photoaged females [4]; week 4): statistically significant improvement
- tactile smoothness, investigator (photoaged females [4]; week 4): statistically significant improvement
- visual smoothness, investigator (photoaged females [4]; week 4, retinol P=0.031): no significance
- firmness, investigator (photoaged females [4]; week 8): statistical significance
- luminosity, investigator (photoaged females [4]; week 8): statistical significance
- overall photoaging appearance, investigator (photoaged females [4]; week 8): statistical significance
- radiance, investigator (photoaged females [4]; week 8): statistical significance
- skin texture, investigator (photoaged females [4]; week 8): statistical significance
- softness, investigator (photoaged females [4]; week 8): statistical significance
- tactile smoothness, investigator (photoaged females [4]; week 8): statistical significance
- visual smoothness, investigator (photoaged females [4]; week 8): statistical significance
- skin dryness, investigator (photoaged females [4]; week 8, retinol P<0.001): not seen
- subjects discontinued due to retinoid tolerability issues (photoaged females [5]; 12-week study, Cell 1 30 subjects, Cell 2 15 subjects): one
- serious adverse events (photoaged females [5]; during the conduct of the study): No serious adverse events
